Laboratory results published in PMC9459812, “Evaluation of Activity of Sesquiterpene Lactones and Chicory Extracts as Acetylcholinesterase Inhibitors Assayed in Calorimetric and Docking Simulation Studies” (Nutrients, 2022).

Key:
[1] = target: T1, acetylcholinesterase (AChE) (Electrophorus electricus, UniProt O42275); assay: biochemical; details: ITC, 36.6 °C, single binding site mode, n = 9, ± SD; read-out: KD (dissociation constant)
[2] = target: T1, acetylcholinesterase (AChE); assay: biochemical; details: ITC, n = 9, ± SD

T1 sequence (O42275 24-633): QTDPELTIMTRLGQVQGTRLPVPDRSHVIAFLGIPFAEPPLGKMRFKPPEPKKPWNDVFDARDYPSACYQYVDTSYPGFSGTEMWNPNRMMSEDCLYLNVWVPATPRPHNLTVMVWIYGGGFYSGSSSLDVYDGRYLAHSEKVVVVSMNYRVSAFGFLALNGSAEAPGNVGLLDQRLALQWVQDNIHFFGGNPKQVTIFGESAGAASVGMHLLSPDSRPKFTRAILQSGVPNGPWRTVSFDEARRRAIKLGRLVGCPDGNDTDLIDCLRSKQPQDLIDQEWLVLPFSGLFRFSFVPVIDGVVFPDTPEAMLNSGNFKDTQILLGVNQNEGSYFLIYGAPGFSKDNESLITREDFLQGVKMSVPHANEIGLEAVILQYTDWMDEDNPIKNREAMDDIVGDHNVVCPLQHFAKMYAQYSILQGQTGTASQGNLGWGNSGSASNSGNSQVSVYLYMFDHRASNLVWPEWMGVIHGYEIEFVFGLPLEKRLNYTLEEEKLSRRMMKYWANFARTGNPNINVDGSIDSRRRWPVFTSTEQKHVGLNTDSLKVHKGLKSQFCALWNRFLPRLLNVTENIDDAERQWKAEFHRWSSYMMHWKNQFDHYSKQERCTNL

`C=C1C(=O)O[C@@H]2[C@H]3C(CO)=CC(=O)C3=C(C)C[C@H](OC(=O)Cc3ccc(O)cc3)[C@@H]12` [Lactucopicrin, lactucopicrin] gave a Kd [1] of 169 ± 0.12 µM, a Ki ([2]; dissociation constant of the enzyme–inhibitor complex, read-out: KI (inhibition constant)) of 1.32 ± 0.11 µM and an IC50 ([2]; inhibitor concentration causing 50% decrease in enzyme activity (converted to lactucine for extracts)) of 1.74 ± 0.11 µM.
